What was measured:
[1] = system: Acinetobacter calcoaceticus (15A600), NCCB 100514; assay: Antibiotic activity of purified fraction (broth growth inhibition, serial dilution); assay type: cell-based; settings: Gram−, no effect at highest concentration
Experimental: (§1) Preferably the compound of the invention has antimicrobial or antibiotic activity, more preferably antibacterial activity. Antimicrobial or antibacterial activity can be assessed by a suitable assay known by the person skilled in the art, preferably by a growth inhibition assay as exemplified herein. Preferably growth inhibition is assessed by culturing bacteria are cultured in the presence or absence of the antibacterial compound o/n at 37° C. in Luria Broth (LB). The read-out of the assay is by eye, if the bacteria have visibly grown, the sample is scored as non-inhibitory. If the broth is completely clear, the sample is scored as inhibitory.
(§2) Bacteria are cultured o/n at 37° C. in Luria Broth (LB). This culture is diluted 100× in fresh LB. This fresh culture is then used to test the filtrate and extract. The filtrate was tested in serial dilutions starting at 2× and further diluted with a factor 2 until 256×. The extract was tested starting at 10× dilution and further diluted with a factor 2 until 1280×. The bacteria with filtrate or extract were incubated o/n at 37° C. The read-out of the assay is by eye, if the bacteria have visibly grown, the sample is scored as non-inhibitory. If the broth is completely clear, the sample is scored as inhibitory.
(§3) The 95 fractions collected were pooled per 6 and the pooled fractions were dried in a speed-vac o/n. The fraction residues were dissolved in 1 ml 5% DMSO and tested on E. faecium (15A623) in serial dilutions starting at 2×. […] 1 ml of each fraction was dried in a speed-vac o/n and each fraction residue was dissolved in 1 ml 5% DMSO to be tested on E. faecium. […] The fraction was then tested on 19 additional strains of bacteria (Table 3).

[2] = system: Enterococcus faecium(15A623); assay: as above; assay type: cell-based
Experimental: as §1, §2, §3

[3] = system: Enterococcus faecium(16D030); assay: as above; assay type: cell-based; settings: Gram+
Experimental: as §1, §2, §3

Escherichia coli (CP131) = assay: as above; assay type: cell-based; settings: ESBL SHV-3, Gram−, no effect at highest concentration
Experimental: as §1, §2, §3

Escherichia coli (JS004) = assay: as above; assay type: cell-based; settings: ESBL TEM-3, Gram−, no effect at highest concentration
Experimental: as §1, §2, §3

Escherichia coli (JS203) = assay: as above; assay type: cell-based; settings: ESBL CTX-M-1, Gram−, no effect at highest concentration
Experimental: as §1, §2, §3

[4] = system: Klebsiella pneumonia (CP14); assay: as above; assay type: cell-based; settings: ESBL TEM-18, Gram−, no effect at highest concentration
Experimental: as §1, §2, §3

[5] = system: Klebsiella pneumonia (JS006); assay: as above; assay type: cell-based; settings: ESBL SHV-18, Gram−, no effect at highest concentration
Experimental: as §1, §2, §3

[6] = system: Klebsiella pneumonia (JS264); assay: as above; assay type: cell-based; settings: ESBL CTX-M-15, Gram−, no effect at highest concentration
Experimental: as §1, §2, §3

[7] = system: Klebsiella pneumoniae (MR44); assay: as above; assay type: cell-based; settings: Gram−, no effect at highest concentration
Experimental: as §1, §2, §3

[8] = system: Listeria monocytogenes (41-4a); assay: as above; assay type: cell-based; settings: Gram+
Experimental: as §1, §2, §3

[9] = system: Methicillin-resistant Staphylococcus aureus (MRSA) ST8: USA300 (S1474) FPR3757, NARSA collection NRS482; assay: as above; assay type: cell-based; settings: Gram+
Experimental: as §1, §2, §3

[10] = system: Methicillin-sensitive Staphylococcus aureus 476 (S0101), ATCC BAA-1721; assay: as above; assay type: cell-based; settings: Gram+
Experimental: as §1, §2, §3

[11] = system: Pseudomonas aeruginosa (04A191), NCCB 100515; assay: as above; assay type: cell-based; settings: Gram−, no effect at highest concentration
Experimental: as §1, §2, §3

[12] = system: Staphylococcus epidermidis (08A1071); assay: as above; assay type: cell-based; settings: Gram+
Experimental: as §1, §2, §3

[13] = system: Stenotrophomonas maltophilia (20A226), NCCB 100516; assay: as above; assay type: cell-based; settings: Gram−, no effect at highest concentration
Experimental: as §1, §2, §3

[14] = system: Streptococcus group A (23M092); assay: as above; assay type: cell-based; settings: Gram+
Experimental: as §1, §2, §3

[15] = system: Streptococcus group B (05A396); assay: as above; assay type: cell-based; settings: Gram+
Experimental: as §1, §2, §3

[16] = system: Streptococcus pneumoniae (14B186); assay: as above; assay type: cell-based; settings: Gram+
Experimental: as §1, §2, §3

Listeria monocytogenes = assay: Growth kinetics (time-kill curves); assay type: cell-based; settings: 50, 100 and 200 μg/ml, 37° C., 24 hrs
Experimental: (§4) Also preferred is a growth kinetic assay the effect of the compound of interest is assessed in time on growth of bacterial isolates on blood-agar plates, as known by the person skilled in the art. In brief, liquid cultures are inoculated in Mueller-Hinton Broth and incubated at 37° C. o/n. The o/n cultures were used to prepare a 0.05-0.1 McFarland suspension in Mueller Hinton Broth, which are incubated at 37° C. until 0.5 McFarland ([…]). These suspensions are used to inoculate 5 ml pre-warmed Mueller-Hinton Broth with approximately 1.5×10^5 CFU/ml with the appropriate antibiotic compound of interest. Directly after addition of the bacterial suspension a 0.25 ml sample is taken. Further 0.25 ml samples are taken after 1, 3, 6 and 24 hrs, which are added to 2.25 ml physiological salt solution. This suspension is used to prepare plates for CFU determination. The lower limit of detection is 40 CFU/ml. Bacterial suspension without antibiotics is preferably checked for normal growth after 24 hrs. A compound is understood herein as having antibacterial activity if at least 3 log10 reduction of CFU in the growth kinetics assay as passed after 1, 3, 6 or preferably 24 hours.
(§5) After elucidating the structure, we studied the growth kinetics of several Gram+bacteria in the presence of 50, 100 and 200 μg/ml of the compound of formula (I), in order to determine whether the compound was bacteriostatic or bactericidal. The bacteria were cultured at 37° C. for 24 hrs (with the exception of Streptococcus Pneumoniae which was cultured until 6 hrs) in the presence of the compound and samples were taken for colony counting at 0, 1, 3, 6 and 24 hrs.
(§6) More specifically, bacterial isolates as indicated below were grown on blood-agar plates. Liquid cultures were inoculated in Mueller-Hinton Broth and incubated at 37° C. o/n. The o/n cultures were used to prepare a 0.05-0.1 McFarland suspension in Mueller Hinton Broth, which was incubated at 37° C. until 0.5 McFarland ([…]). These suspensions were used to inoculate 5 ml pre-warmed Mueller-Hinton Broth with approximately 1.5×10^5 CFU/ml with the appropriate antibiotic and antibiotic concentration. Directly after addition of the bacterial suspension a 0.25 ml sample was taken. Further 0.25 ml samples were taken after 1, 3, 6 and 24 hrs. Samples were added to 2.25 ml physiological salt solution. This suspension was used to prepare plates for CFU determination. The lower limit of detection was 40 CFU/ml. Bacterial suspension without antibiotics was checked for normal growth after 24 hrs. Efficient bactericidal activity is defined as at least 3 log10 reduction of CFU.
(§7) The bacteria tested were two strains of Enterococcus faecium (FIGS. 2A and 2B), MRSA USA300 (FIG. 2C), MSSA (FIG. 2D), Staphylococcus epidermidis (FIG. 2E), Listeria monocytogenes (FIG. 2F), Streptococcus group A (FIG. 2G), Streptococcus group B (FIG. 2H) and Streptococcus pneumoniae (FIG. 2I).

[17] = system: Staphylococcus epidermidis; assay: Growth kinetics (time-kill curves); assay type: cell-based; settings: 50, 100 and 200 μg/ml, 37° C., 24 hrs
Experimental: as §4, §5, §6, §7

Streptococcus Group A = assay: Growth kinetics (time-kill curves); assay type: cell-based; settings: 50, 100 and 200 μg/ml, 37° C., 24 hrs
Experimental: as §4, §5, §6, §7

Streptococcus Group B = assay: Growth kinetics (time-kill curves); assay type: cell-based; settings: 50, 100 and 200 μg/ml, 37° C., 24 hrs, bactericidal = at least 3 log10 reduction of CFU
Experimental: as §4, §5, §6, §7

Streptococcus pneumoniae = assay: Growth kinetics (time-kill curves); assay type: cell-based; settings: 50, 100 and 200 μg/ml, 37° C., cultured until 6 hrs
Experimental: as §4, §5, §6, §7

E. faecium (15A623) = assay: Growth kinetics (time-kill curves); assay type: cell-based, Enterococcus faecium; settings: 50, 100 and 200 μg/ml, 37° C., 24 hrs
Experimental: as §4, with “hours. […]” for “hours.”

E. faecium (16D030) = assay: Growth kinetics (time-kill curves); assay type: cell-based, Enterococcus faecium; settings: 50, 100 and 200 μg/ml, 37° C., 24 hrs
Experimental: as §4, with “hours. […]” for “hours.”

MRSA USA300 = assay: Growth kinetics (time-kill curves); assay type: cell-based, Staphylococcus aureus; settings: 50, 100 and 200 μg/ml, 37° C., 24 hrs
Experimental: as §4, with “hours. […]” for “hours.”

MSSA = assay: Growth kinetics (time-kill curves); assay type: cell-based, Staphylococcus aureus; settings: 50, 100 and 200 μg/ml, 37° C., 24 hrs
Experimental: as §4, with “hours. […]” for “hours.”

## CC1CCC(=O)/C=C/C(=O)O1 (stereo not drawn) [compound of formula (I), (E)-8-methyl-7,8-dihydro-2H-oxocine-2,5(6H)-dione]
[1]
  Minimal concentration for antibacterial activity: No effect at 1.5 g/l
[2]; E. faecium (15A623), residue in 1 ml 5% DMSO, serial dilutions starting at 2×
  inhibition of bacterial growth by HPLC fractions: inhibited bacterial growth
[2]; Enterococcus faecium(15A623), Gram+
  Minimal concentration for antibacterial activity: 37.5 mg/1
[2]; compound of formula (I) and hydrogenated derivative at similar concentrations
  activity against E. faecium (15A623): active
[3]
  Minimal concentration for antibacterial activity: 75.0 mg/1
Escherichia coli (CP131)
  Minimal concentration for antibacterial activity: No effect at 1.5 g/l
Escherichia coli (JS004)
  Minimal concentration for antibacterial activity: No effect at 1.5 g/l
Escherichia coli (JS203)
  Minimal concentration for antibacterial activity: No effect at 1.5 g/l
[4]
  Minimal concentration for antibacterial activity: No effect at 1.5 g/l
[5]
  Minimal concentration for antibacterial activity: No effect at 1.5 g/l
[6]
  Minimal concentration for antibacterial activity: No effect at 1.5 g/l
[7]
  Minimal concentration for antibacterial activity: No effect at 1.5 g/l
[8]
  Minimal concentration for antibacterial activity: 75.0 mg/1
[9]
  Minimal concentration for antibacterial activity: 18.8 mg/L
[10]
  Minimal concentration for antibacterial activity: 4.69 mg/L
[11]
  Minimal concentration for antibacterial activity: No effect at 1.5 g/l
[12]
  Minimal concentration for antibacterial activity: 18.8 mg/L
[13]
  Minimal concentration for antibacterial activity: No effect at 1.5 g/l
[14]
  Minimal concentration for antibacterial activity: 75.0 mg/1
[15]
  Minimal concentration for antibacterial activity: 75.0 mg/1
[16]
  Minimal concentration for antibacterial activity: 75.0 mg/1
Listeria monocytogenes
  bacteriostatic or bactericidal (time-kill curves): bactericidal
[17]
  bacteriostatic or bactericidal (time-kill curves): bactericidal
Streptococcus Group A
  bacteriostatic or bactericidal (time-kill curves): bactericidal
Streptococcus Group B
  bacteriostatic or bactericidal (time-kill curves): bacteriostatic
Streptococcus pneumoniae
  bacteriostatic or bactericidal (time-kill curves): bactericidal
E. faecium (15A623)
  bacteriostatic or bactericidal (time-kill curves): bacteriostatic
E. faecium (16D030)
  bacteriostatic or bactericidal (time-kill curves): bacteriostatic
MRSA USA300
  bacteriostatic or bactericidal (time-kill curves): bactericidal
MSSA
  bacteriostatic or bactericidal (time-kill curves): bactericidal
